Source: ChEMBL document CHEMBL4651402, “Screening of ~5500 FDA-approved drugs and clinical candidates for anti-SARS-CoV-2 activity” (2021)

System: SARS-CoV-2
Experiment: microbe, parasite or virus in culture
Settings: Severe acute respiratory syndrome coronavirus 2, Vero C1008, 48 h

SMILES | IC50 [µM] | IC50 (read-out: pIC50 (converted)) [µM]
N=C(N)NN [PIMAGEDINE] | > 20 | > 20
O=C(NC[C@H](O)CO)c1ccncc1Nc1ccc(I)cc1F [PIMASERTIB] | > 20 | > 20
CCOC(=O)C1(c2ccccc2)CCN(CCCNc2ccccc2)CC1 [PIMINODINE] | > 20 | > 20
O=C(O)[C@H]1C2CCC(CC2)[C@@H]1Nc1nc(-c2c[nH]c3ncc(F)cc23)ncc1F [PIMODIVIR] | > 20 | > 20
O=c1[nH]c2ccccc2n1C1CCN(CCCC(c2ccc(F)cc2)c2ccc(F)cc2)CC1 [PIMOZIDE] | > 20 | > 20
CC(N/C(=N\C#N)Nc1ccncc1)C(C)(C)C (stereo unspecified) [PINACIDIL ANHYDROUS] | > 20 | > 20
CC(C)NCC(O)COc1cccc2[nH]ccc12 (stereo unspecified) [PINDOLOL] | > 20 | > 20
CCc1ccc(CCOc2ccc(CC3SC(=O)NC3=O)cc2)nc1 (stereo unspecified) [PIOGLITAZONE] | > 20 | > 20
NC(=O)C1(N2CCCCC2)CCN(CCCC(=O)c2ccc(F)cc2)CC1 [PIPAMPERONE] | > 20 | > 20
CCn1cc(C(=O)O)c(=O)c2cnc(N3CCNCC3)nc21 [PIPEMIDIC ACID] | > 20 | > 20
CC[N+]1(C)CCCC(OC(=O)C(O)(c2ccccc2)c2ccccc2)C1 (stereo unspecified) [PIPENZOLATE] | > 20 | > 20
c1ccc(-c2cc(CCC3CCNCC3)c3ccccc3n2)cc1 [PIPEQUALINE] | > 20 | > 20
O=C(O)/C=C/C=C/c1ccc2c(c1)OCO2 [PIPERIC ACID] | > 20 | > 20
CCN1CCCC(OC(=O)C(c2ccccc2)c2ccccc2)C1 (stereo unspecified) [PIPERIDOLATE] | > 20 | > 20
O=C(/C=C/C=C/c1ccc2c(c1)OCO2)N1CCCCC1 [PIPERINE] | > 20 | > 20
O=C(O)c1ccc2c(c1)OCO2 [PIPERONYLIC ACID] | > 20 | > 20
c1ccc2c(c1)OCC(CN1CCCCC1)O2 (stereo unspecified) [PIPEROXAN] | > 20 | > 20
CN1CCN(c2cc3c(nn2)Oc2ccccc2N3C)CC1 [PIPOFEZINE] | > 20 | > 20
COc1c(C(O)CCc2ccc(O)cc2)c(OCCN2CCCCC2)c(OC)c2occc12 (stereo unspecified) [PIPROFUROL] | > 20 | > 20
Cc1nc2ccccn2c(=O)c1CCN1CCC(C(=O)c2ccc(F)cc2)CC1 [PIRENPERONE] | > 20 | > 20
CN1CCN(CC(=O)N2c3ccccc3C(=O)Nc3cccnc32)CC1 [PIRENZEPINE] | > 20 | > 20

SMILES | IC50 [µM] | IC50 (read-out: pIC50 (converted)) [µM]
NS(=O)(=O)c1cc(C(=O)O)cc(N2CCCC2)c1Oc1ccccc1 [PIRETANIDE] | > 20 | > 20
Cc1ccc(=O)n(-c2ccccc2)c1 [PIRFENIDONE] | > 20 | > 20
c1cnc(N2CCN(Cc3ccc4c(c3)OCO4)CC2)nc1 [PIRIBEDIL] | > 20 | > 20
Cc1ccc2c(c1)c1c3n2CCNC3CCC1 (stereo unspecified) [PIRLINDOLE] | > 20 | > 20
Cc1cc(CC(C)CC(C)(C)C)n(O)c(=O)c1 (stereo unspecified) [PIROCTONE] | > 20 | > 20
CN1CCC/C1=N\C(=N\c1ccccc1)N1CCCC1 [PIROGLIRIDE] | > 20 | > 20
NC(=O)C(CCN1CCN2CCCC2C1)(c1ccccc1)c1ccccc1 (stereo unspecified) [PIROLAZAMIDE] | > 20 | > 20
CCn1cc(C(=O)O)c(=O)c2cnc(N3CCCC3)nc21 [PIROMIDIC ACID] | > 20 | > 20
NCCCNc1ccc2c3c(nn2CCNCCO)-c2c(O)ccc(O)c2C(=O)c13 [PIROXANTRONE] | > 20 | > 20
CN1C(C(=O)Nc2ccccn2)=C(O)c2ccccc2S1(=O)=O [PIROXICAM] | > 20 | > 20
CCc1[nH]c(=O)[nH]c1C(=O)c1ccncc1 [PIROXIMONE] | > 20 | > 20
O=C(O)C[C@H](O)C[C@H](O)/C=C/c1c(C2CC2)nc2ccccc2c1-c1ccc(F)cc1 [PITAVASTATIN] | > 50.1 | > 50.1
Clc1ccc(CCCOCCCN2CCCCC2)cc1 [PITOLISANT] | > 20 | > 20
CC(C)(C)C(=O)NCCCC(=O)O [PIVAGABINE] | > 20 | > 20
CC(C)(C)C(=O)OCOC(=O)[C@@H]1N2C(=O)[C@@H](NC(=O)[C@H](N)c3ccccc3)[C@H]2SC1(C)C [PIVAMPICILLIN] | > 20 | > 20
CC(C)(C)C(=O)NNCc1ccccc1 [PIVHYDRAZINE] | > 20 | > 20
CN1CCC(=C2c3ccccc3CCc3sccc32)CC1 [PIZOTYLINE] | > 20 | > 20
C[C@@H](Nc1ncnc2[nH]c(-c3ccc(O)cc3)cc12)c1ccccc1 [PKI-166] | > 20 | > 20
Cc1cc(CCCOc2c(C)cc(-c3noc(C(F)(F)F)n3)cc2C)on1 [PLECONARIL] | > 20 | > 20
CC1=CC(=O)c2c(O)cccc2C1=O [PLUMBAGIN] | > 20 | > 20
O=C(N[C@H]1CN2CCC1CC2)c1ccc(Cl)cc1 [PNU-282987] | > 20 | > 20

SMILES | IC50 [µM] | IC50 (read-out: pIC50 (converted)) [µM]
COc1cc([C@@H]2c3cc4c(cc3[C@H](O)[C@H]3COC(=O)[C@H]23)OCO4)cc(OC)c1OC [PODOFILOX] | > 20 | > 20
C[N+]1(C)CCCC1COC(=O)C(O)(c1ccccc1)c1ccccc1 (stereo unspecified) [POLDINE] | > 20 | > 20
CN1C(CSCC(F)(F)F)Nc2cc(Cl)c(S(N)(=O)=O)cc2S1(=O)=O (stereo unspecified) [POLYTHIAZIDE] | > 20 | > 20
CSCC[C@H](N)C(=O)N[C@@]1(C(=O)O)CS(=O)(=O)[C@H]2[C@H](C(=O)O)[C@H]21 [POMAGLUMETAD METHIONIL ANHYDROUS] | > 20 | > 20
Nc1cccc2c1C(=O)N(C1CCC(=O)NC1=O)C2=O (stereo unspecified) [POMALIDOMIDE] | > 20 | > 20
O=C(O)Cc1nn(Cc2ccc(Br)cc2F)c(=O)c2ccccc12 [PONALRESTAT] | > 20 | > 20
CCC/N=C1\S/C(=C\c2ccc(OC[C@H](O)CO)c(Cl)c2)C(=O)N1c1ccccc1C [PONESIMOD] | > 20 | > 20
C=CC(=O)N1CCC(Oc2cc3c(Nc4ccc(Cl)c(Cl)c4F)ncnc3cc2OC)CC1 [POZIOTINIB] | > 20 | > 20
CCCCc1nc2cc(/C=C/C(=O)NO)ccc2n1CCN(CC)CC [PRACINOSTAT] | > 20 | > 20
CC(=O)Nc1ccc(OCC(O)CNC(C)C)cc1 (stereo unspecified) [PRACTOLOL] | > 20 | > 20
C[n+]1ccccc1C=NO [PRALIDOXIME] | > 20 | > 20
CCCN[C@H]1CCc2nc(N)sc2C1 [PRAMIPEXOLE] | > 20 | > 20
CC(C)NC1CCC(c2ccccc2)(c2ccccc2)CC1 [PRAMIVERINE] | > 20 | > 20
CCCCOc1ccc(OCCCN2CCOCC2)cc1 [PRAMOXINE] | > 20 | > 20
CC(C(=O)O)c1ccc2c(c1)Cc1cccnc1O2 (stereo unspecified) [PRANOPROFEN] | > 20 | > 20
COc1ccc(C(=O)c2c(C)n(CCN3CCOCC3)c3ccccc23)cc1 [PRAVADOLINE] | > 20 | > 20
CC[C@H](C)C(=O)O[C@H]1C[C@H](O)C=C2C=C[C@H](C)[C@H](CC[C@@H](O)C[C@@H](O)CC(=O)O)[C@H]21 [PRAVASTATIN] | > 20 | > 20
O=C(C1CCCCC1)N1CC(=O)N2CCc3ccccc3C2C1 (stereo unspecified) [PRAZIQUANTEL] | > 50.1 | > 50.1
COc1cc2nc(N3CCN(C(=O)c4ccco4)CC3)nc(N)c2cc1OC [PRAZOSIN] | > 20 | > 20
CCCN1CCC[C@@H](c2cccc(O)c2)C1 [PRECLAMOL] | > 20 | > 20
CCOC(=O)O[C@]1(C(=O)COC(=O)CC)CC[C@H]2[C@@H]3CCC4=CC(=O)C=C[C@]4(C)[C@H]3[C@@H](O)C[C@@]21C [PREDNICARBATE] | > 20 | > 20
